{
  "source": "patent US5705687A",
  "about": "“Neurotropic drug and method for preparation of same” (priority 1993, dated 1998)",
  "key": {"mice [1]": {"system": "mice", "assay": "Soporific action of barbital sodium"}, "[2]": {"conditions": "background statement on the known drug; cited from earlier work"}, "mice [3]": {"system": "mice", "assay": "Orientation reflexes: test of ascent onto an inclined net"}, "mice [4]": {"system": "mice", "assay": "Soporific action of hexobarbital"}, "[5]": {"assay": "Acute toxicity in mice (Litchfield-Wilcockson)", "type": "in vivo, white crossbred mice", "conditions": "mouse, in vivo"}, "mice [6]": {"system": "mice", "assay": "Rotating rod: myorelaxation and movement coordination", "type": "in vivo, white crossbred mice", "protocol": "(§1) The myorelaxing effect of the new compounds was tested by the method of the \"rotating rod\"(Dunham N. W., Miga T. S., A note on a simplex apparatus for detecting neurological deficit in rat and mice, J. Am. Pharm. Ass., 1957, vol. 46, No. 3, pp. 208-209), which allows one to record any abnormalities in coordination and balance, as well as ataxia. The mice in the laboratory tests were placed on a horizontal rod, 2 cm in diameter, rotating at a speed of 5 revolutions per minute. The object was to register the number of mice which were able to maintain equilibrium on the rod for two minutes. Any presence of a myorelaxing component was considered to be a side effect of the substance being studied."}, "mice [7]": {"system": "mice", "assay": "Conditioned reaction of passive avoidance (CPRA), amnesia by electric shock", "type": "in vivo", "conditions": "250 to 500 mg/kg; earlier tests", "from_the_text": "The effect produced by the new substance on the processes of the central nervous system was examined on the model of one-time training of mice, of conditioned reaction of passive avoidance (CPRA), where the amnesic effect was produced by electric shock. During the tests, a two-section chamber was used to condition a certain reflex to the lit and darkened sections. First, for two minutes, the amount of time was registered, that a mouse spent in the lit section before entering the darkened section. Then, while in the darkened section, the animal would receive a single electric shock through the electrode floor (training). The training was immediately followed by an electric shock (50 Hz, 0.2 see). […] The substance was intraperitoneally administered 40 min. prior to the start of the training, the control group received a physiological solution. […] The anti-amnesic properties of the new compound are represented by an increase in the latent period before and after the training. (Δt)"}, "mice [8]": {"system": "mice", "assay": "Spontaneous motor activity (SMA), 40-channel automatic motor meter", "conditions": "for Average SMA, M ± m: control 524.0 ± 99.2; for Relative change in activity (%): control = 100"}, "[9]": {"conditions": "cited from earlier work"}, "mice [10]": {"system": "mice", "assay": "Histotoxic hypoxia (sodium nitroprussiate), lifespan", "type": "in vivo", "conditions": "250, 500 and 1000 mg/kg (two values for three doses (so in the source))", "protocol": "(§2) The antihypoxic properties of the new compounds were tested in the models of hypoxic normobaric, hemic and histotoxic hypoxia. The hypoxic (hypercapnic) normobaric hypoxia was induced by placing the mice in hermetically sealed transparent boxes, subdivided into compartments, 80 cm^3 each. The animals were observed until all respiratory movements ceased. The hemic hypoxia was induced by the intraperitoneal administration of sodium nitrite in a dose of 400 mg/kg. The hystotoxic hypoxia was induced by the intraperitoneal administration of sodium nitroprussiate, in a dose of a 20 mg/kg dosage."}, "mice [11]": {"system": "mice", "assay": "Hemic hypoxia (sodium nitrite), lifespan", "type": "in vivo", "conditions": "400 mg/kg i.p., control", "protocol": "as §2"}, "[12]": {"assay": "Solubility and hygroscopicity", "type": "physicochemical"}, "central nervous system": {"system": "central nervous system", "assay": "Neuropharmacological screening, overall findings", "type": "in vivo, mice", "conditions": "examined dosage range", "protocol": "as §1"}},
  "note": "Several values for one entry are separate records, joined by “and”; a condition that tells them apart may be missing. Identical values can stand only once. Counter-ions that a name gives are not always drawn. Like-named read-outs stand apart in the source and are kept apart here.",
  "data": [
    {"smiles": "CCC1(CC)C(=O)NC(=O)NC1=O", "note": "[Barbitol sodium, barbital sodium, reference compound]", "values": [
      {"measurement": "Lateral position (min), barbiturate alone", "setting": "mice [1]; 250 mg/kg i.p., control of each experiment", "result": "31.8 ± 1.1 min and 34.5 ± 1.4 min and 38.1 ± 1.3 min"}
    ]},
    {"smiles": "CC(C)(CO)[C@@H](O)C(=O)NCCCC(=O)O", "note": "[pantogam, calcium salt of the D-homopantothenic acid, reference compound]", "values": [
      {"measurement": "therapeutic index", "setting": "[2]", "result": 3.3},
      {"measurement": "ED50", "setting": "mice [3]; Mus musculus, ip, read-out: average effective dose (DE50)", "result": 680, "unit": "mg/kg"},
      {"measurement": "time of maximum strength", "setting": "mice [3]; after administration, orientation reflex", "result": 60, "unit": "min"},
      {"measurement": "effect on orientation reflex", "setting": "mice [3]; mice", "result": "suppressed the orientation reflex"},
      {"measurement": "increase of soporific effect", "setting": "mice [1]; 500 mg/kg, barbital sodium, indicated earlier", "result": 20, "unit": "%"},
      {"measurement": "increase of soporific effect", "setting": "mice [4]; 500 mg/kg, hexobarbital, indicated earlier", "result": 40, "unit": "%"},
      {"measurement": "LD50", "setting": "[5]; intravenous, read-out: DL50 (the source's name)", "result": 1080, "unit": "mg/kg"},
      {"measurement": "LD50", "setting": "[5]; ip, earlier experiments, identical conditions, read-out: DL50 (acute toxicity)", "result": 2250, "unit": "mg/kg"},
      {"measurement": "MTD", "setting": "[5]; ip, read-out: maximum tolerance level", "result": 1000, "unit": "mg/kg"},
      {"measurement": "loss of movement coordination (side effect)", "setting": "mice [6]; 300 mg/kg and higher", "result": "loss of movement coordination"},
      {"measurement": "time of maximum strength", "setting": "mice [6]; after injection, rotating rod", "result": 30, "unit": "min"},
      {"measurement": "return of movement coordination and muscle strength (not until)", "setting": "mice [6]; after the start of the experiment", "result": 1.5, "unit": "h"},
      {"measurement": "anti-amnesic effect (in words)", "setting": "mice [7]", "result": "moderate a anti-amnesic effect"},
      {"measurement": "anti-amnesic effect, share of latent period in animals not exposed to the electric shock", "setting": "mice [7]", "result": "60-75%"},
      {"measurement": "decrease in number of runs in the motor meter", "setting": "mice [8]; 500 mg/kg", "result": 30, "unit": "%"},
      {"measurement": "Average SMA, M ± m", "setting": "mice [8]; 500 mg/kg i.p.", "result": "392.0 ± 307"},
      {"measurement": "Relative change in activity (%)", "setting": "mice [8]; 500 mg/kg i.p.", "result": 74.8, "unit": "%"},
      {"measurement": "Average SMA, M ± m", "setting": "mice [8]; 1000 mg/kg i.p., P < 0.05", "result": "176.0 ± 116"},
      {"measurement": "Relative change in activity (%)", "setting": "mice [8]; 1000 mg/kg i.p.", "result": 33.6, "unit": "%"},
      {"measurement": "decrease in motor activity", "setting": "mice [8]; 1000 mg/kg, the maximum tolerable dose", "result": 70, "unit": "%"},
      {"measurement": "effect on motor activity (in words)", "setting": "mice [8]; SMA test, mice", "result": "depressing effect on motor activity"},
      {"measurement": "undesirable side effects", "setting": "[9]; known drug, high dose", "result": "depression and myorelaxation"},
      {"measurement": "penetration of the hematoencephalitic barrier compared to aminalon", "setting": "[9]; vs aminalon", "result": "better penetration"},
      {"measurement": "increase in lifespan", "setting": "mice [10]", "result": "57% and 85%"}
    ]},
    {"smiles": "O=N[O-].[Na+]", "note": "[Na-nitrite, sodium nitrite, reference compound]", "values": [
      {"measurement": "Average lifespan (sec), hypoxia inducer alone", "setting": "mice [11]", "result": "790.5 ± 21.1", "unit": "s"}
    ]},
    {"smiles": "CC(C)(CO)C(=O)C(=O)NCCCC(=O)O", "note": "[KPA, N-(4-hydroxy-3,3-dimethyl-2-oxo-1-butyryl)γ-aminobutyric acid]", "values": [
      {"measurement": "solubility in acetone or chloroform", "setting": "[12]; acetone, chloroform", "result": "not in acetone or chloroform"},
      {"measurement": "solubility in water and alcohol", "setting": "[12]; water, alcohol", "result": "readily soluble"},
      {"measurement": "depressing effect on the animals", "setting": "central nervous system", "result": "no depressing effect"}
    ]},
    {"smiles": "CN1C(=O)NC(=O)C(C)(C2=CCCCC2)C1=O", "note": "(stereo not shown) [hexobarbital, reference compound]", "values": [
      {"measurement": "Duration of sleep (min), barbiturate alone", "setting": "mice [4]; 100 mg/kg i.p., control", "result": "46.3 ± 2.3", "unit": "min"},
      {"measurement": "Lateral position (min), barbiturate alone", "setting": "mice [4]; 100 mg/kg i.p., control", "result": "2.4 ± 0.15", "unit": "min"}
    ]}
  ]
}
